Data on two compounds can be found in US20240226078A9, “ENHANCEMENT OF MICROFRACTURE FOR REPAIRING CARTILAGE DEFECTS VIA WNT INHIBITION” (University of Pittsburgh - Of the Commonwealth System of …, priority 2021, published 2024).

Data set [1] relates to human bone marrow-derived stem cell (hBMSC)-derived cartilage. The data set is described as follows: COL1 expression and deposition in hBMSC-derived cartilage under Wnt inhibition (gene expression, immunofluorescence). Type of data set: cell-based. From the text: FIG. 1 illustrates a comparison of COL1 gene expression in Control and Wnt inhibition (Optimized) group. […] B) Collagen type 1 detection by immunofluorescence. Control group (i-iii); Optimized group (iv-vi). […] Bar −50 μm. […] In general, as used herein small molecule (therapeutic) compounds may, for example, have a molecular weight below 1.5 kDa or below 1.0 kDa.

Data set [2] concerns in vitro-expanded human chondrocytes. The data set is described as follows: Western blot analysis of human chondrocytes treated for 3 days. Type of data set: cell-based. The conditions noted are these: vs saline control (FIG. 2). From the text: FIG. 2 illustrates Western blot analysis for human chondrocytes treated with saline control (CON) and lorecivivint (LRC) for 3 days.
In that regards, FIG. 3 illustrates post-MFx events including: A) clot formation; B) stem cell migration, C) fibrogenesis, D) chondrogenesis and bone healing, and E) degeneration. To facilitate rapid clinical translation, it is desirable to repurpose clinically proven. human-safe Wnt inhibitors. Specifically, the Wnt inhibitor lorecivivint (SM04690), which suppresses CDC-like kinase 2 (CLK2) and dual-specificity tyrosine phosphorylation-regulated kinase 1A (DYRK1A) as well as Wnt/β-catenin signaling, has shown promising results for knee osteoarthritis as discussed above. […] The reparative outcome of Wnt- (for example, lorecivivint-) enhanced MFx provides an avenue to achieve long-term hyaline cartilage repair with a minimally invasive and cost-effective procedure, unattainable by current surgical procedures.

Data set [3] relates to hBMSCs/blood clot construct. The data set is described as follows: In vitro MFx model: chondrogenesis of hBMSCs/blood clot construct. Type of data set: cell-based, human. As to conditions: expected. An excerpt:
The cause of post-Mfx fibrocartilage formation remains unclear. An in vitro model hereof may be used to simulate post-MFx tissue remodeling for further study and/or optimization of methodologies hereof Since harvesting human post-MFx clots is not feasible, as one of the initial steps toward human studies/clinical trials, one may simulate such a post-MFx clot by encapsulating stem cells such as hBMSCs within a clot derived from human peripheral blood as described herein. Optimization studies hereof may thus proceed via such a novel in vitro model which simulates post-MFx fibrocartilage formation (see FIG. 3) and assess treatment efficacy. As illustrated schematically in FIG. 4, to mimic the post-MFx clot, stem cells such as human bone marrow-derived stem cells (hBMSCs), the likely progenitor cells contributing to MFx repair, are encapsulated within clots derived from human peripheral blood. hBMSCs/blood clot may be differentiated using, for example, a chondroinductive factor such as insulin growth factor-1 (IGF-1), one of the major synovial fluid chondroinductive factors. The hBMSCs/blood clot may, for example, be induced to differentiate into fibrocartilage upon stimulation by IGF-1 (and/or other chondroinductive factor(s)), at physiological concentration. Application of Wnt inhibitors such lorecivivint in the model allows study of the augmentation of chondrogenesis and/or reduction of fibrosis. The hBMSCs/blood clot is thereby induced to differentiate into fibrocartilage upon such stimulation. Lorecivivint and/or other Wnt inhibitor are added to the clot to study the augmentation of chondrogenesis and reduction of fibrosis.
B. In vitro model—chondrogenesis of hBMSCs/blood clot construct. hBMSCs/blood clots may, for example, be cultured in differentiation medium containing either 0, 10, 20, 50, or 100 ng/ml IGF-1. Lorecivivint may be introduced using the concentrations described above
Preparation of hBMSCs/blood clot construct. […]

Data set [4] relates to OA progression in rats. As to conditions: intraarticular, 0.3 μg dissolved in 50 μl saline (~12 nM); cited from earlier work.
For data set [5] the following is noted: cited from earlier work.
For data set [6] the following is noted: single intraarticular injection; cited from earlier work.
Data set [7] relates to hBMSC. As to conditions: lorecivivint alone, cited from earlier work.
Data set [8] deals with humans. As to conditions: cited from earlier work.

In general, solubility refers to the dissolved amount per volume that the medium holds.

In brackets after ≈: the same amount, converted by molar mass.

With `Oc1nc(-c2ccc(C(F)(F)F)cc2)nc2c1CSCC2` [XAV939], the chondrogenesis entry in data set [1] was “without impairing chondrogenesis”. Also, the COL1 expression entry in data set [1] (compared to controls (FIG. 1A), p<0.05) was “significantly lowers”. The COL1 protein deposition result in data set [1] (immunofluorescence, compared to controls (FIG. 1B)) was “significantly lowers”.

Regarding `CC(C)CC(=O)Nc1cncc(-c2ccc3[nH]nc(-c4nc5cncc(-c6cccc(F)c6)c5[nH]4)c3c2)c1` [lorecivivint], the COL1 expression entry in data set [2] is given as “significantly reduced”; in data set [7] (hBMSC chondrogenesis) it was “minimal”. Besides, the COL1 immunostaining entry in data set [3] (treated constructs) is reported as “absent or localized only to the marginal regions”. In addition, in data set [3] (vs untreated group), the “COL1, 3, FN, α-SMA expression levels” value is “significantly lower”. Further, the “COL2, AGG, SOX9, COMP, PRG4, and COL2/COL1 expression levels” value in data set [3] (vs untreated group) is given as “higher than untreated group”. In addition, the OA progression result in data set [4] is listed as “significantly ameliorates”. Further, the solubility in data set [5] is about 5 mM (≈ 2530 µg/mL). Further, the “knee joint residence time” value in data set [6] is reported as over 180 days. In addition, the “initiation of hBMSC chondrogenesis” value in data set [7] was “sufficient to initiate hBMSC chondrogenesis”. Further, the safety of injection result in data set [8] is listed as “safe”.
